pIC50: −log10 of the molar value. Structures can show the parent of a compound that is named as a salt. Where two headings read alike, the source gives them in different places.
Legend:
[1] = system: E. coli expressing the Class A ESBL SHV-5; assay: In vitro antibacterial assay of β-lactamase inhibition (broth microdilution MIC), E. coli SHV-5; format: cell-based; details: in presence of Ceftazidime 8 μg/ml (Examples 1-56)
How it was run: (§1)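 CAMHB microdilution, CLSI inoculum. Cells grown 3-5 h + 50 μg/mL ampicillin. Cpd 2-fold serial, 8–0.015 μg/mL final, with β-lactam partner. 37° C, 16-20 h; visual MIC.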

[2] = system: E. cloacae expressing the Class C P99+; assay: In vitro antibacterial assay of β-lactamase inhibition (broth microdilution MIC), E. cloacae P99+; format: cell-based; details: in presence of Ceftazidime 8 μg/ml (Examples 1-56)
How it was run: as §1

CTX-M15 β-lactamase = target: T1, CTX-M15 β-lactamase (Escherichia coli, UniProt Q9EXV5); assay: β-lactamase enzyme inhibition assay (nitrocefin substrate), CTXM-15; format: biochemical
T1 construct: expressed as native untagged proteins; made in house; host or cells: E. coli BL21(DE3)
How it was run: (§2)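 IC50 values reflect a 50% drop in the initial rate of nitrocefin (100 μM final) hydrolysis, monitored at 486 nm. Inhibitor was preincubated with the purified native enzyme for 10 min at 37 °C in PBS pH 7.0.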

OXA-23 β-lactamase = target: T2, OXA-23 β-lactamase (Acinetobacter baumannii, UniProt Q9L4P2); assay: β-lactamase enzyme inhibition assay (nitrocefin substrate), OXA-23 crude extract; format: biochemical; details: nitrocefin 100 μM, 37° C., PBS pH 7.0; read-out: OXA-23 IC50
T2 construct: crude β-lactamase extracts were prepared from 20 ml overnight cultures; endogenous in cells; host or cells: Acinetobacter baumannii cells containing OXA-23 (crude freeze-thaw extract)
How it was run: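 Crude enzyme came from freeze-thaw extracts of mid-log OXA-23-carrying A. baumannii grown in MH-II broth at 37° C. Inhibitors (100–0.005 μM in PBS pH 7.0) were preincubated with the enzyme for 10 min at 37° C, then 100 μM nitrocefin (final) was added and read kinetically at 486 nm for 10 min. IC50 was taken from initial hydrolysis rates relative to uninhibited controls.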

[3] = system: P. aeruginosa expressing the Class B metallo β-lactamase VIM-2; assay: In vitro antibacterial assay of β-lactamase inhibition (broth microdilution MIC), P. aeruginosa VIM-2; format: cell-based; details: in presence of Ceftazidime 16 μg/mL (Examples 1-56)
How it was run: as §1

[4] = system: K. pneumoniae expressing the Class A carbapenemase KPC-2; assay: microbe, parasite or virus in culture; format: cell-based; details: in presence of Ceftazidime 8 μg/ml (Examples 1-56)
How it was run: as §1

SHV-5 β-lactamase = target: T3, SHV-5 β-lactamase (Klebsiella pneumoniae, UniProt P0A3M1); assay: β-lactamase enzyme inhibition assay (nitrocefin substrate), SHV-5; format: biochemical
T3 construct: expressed as native untagged proteins; made in house; host or cells: E. coli BL21(DE3)
How it was run: as §2

[5] = target: T4, VIM-2 metallo β-lactamase (Pseudomonas aeruginosa, UniProt Q9K2N0); assay: β-lactamase enzyme inhibition assay (nitrocefin substrate), VIM-2; format: biochemical; details: nitrocefin 100 μM, 37° C., PBS pH 7.0; read-out: VIM-2 IC50
T4 construct: made in house
How it was run: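 VIM-2 was expressed untagged in E. coli BL21(DE3) and purified by two Q sepharose anion-exchange runs plus gel filtration to >90% purity. Compounds at 100–0.005 μM in PBS pH 7.0 were preincubated with enzyme for 10 min at 37° C, then nitrocefin was added at 100 μM final. Hydrolysis was followed kinetically at 486 nm for 10 min; IC50 is the concentration halving the initial rate relative to no-inhibitor wells.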

p99 AmpC β-lactamase = target: T5, p99 AmpC β-lactamase (Enterobacter cloacae, UniProt P05364); assay: β-lactamase enzyme inhibition assay (nitrocefin substrate), P99 AmpC; format: biochemical
T5 construct: expressed as native untagged proteins; made in house; host or cells: E. coli BL21(DE3)
How it was run: as §2

KPC-2 β-lactamase = target: T6, KPC-2 β-lactamase (Klebsiella pneumoniae, UniProt Q9F663); assay: β-lactamase enzyme inhibition assay (nitrocefin substrate), KPC-2; format: biochemical
T6 construct: expressed as native untagged proteins; made in house; host or cells: E. coli BL21(DE3)
How it was run: as §2

[6] = system: K. pneumoniae expressing the Class A Extended Spectrum Beta-Lactamase (ESBL) CTX-M-15; assay: In vitro antibacterial assay of β-lactamase inhibition (broth microdilution MIC), K. pneumoniae CTX-M-15; format: cell-based; details: in presence of Ceftazidime 8 μg/ml (Examples 1-56)
How it was run: as §1

[7] = nitrocefin 100 μM, 37° C., PBS pH 7.0, read-out: P99 AmpC IC50

T3 sequence (P0A3M1 22-286): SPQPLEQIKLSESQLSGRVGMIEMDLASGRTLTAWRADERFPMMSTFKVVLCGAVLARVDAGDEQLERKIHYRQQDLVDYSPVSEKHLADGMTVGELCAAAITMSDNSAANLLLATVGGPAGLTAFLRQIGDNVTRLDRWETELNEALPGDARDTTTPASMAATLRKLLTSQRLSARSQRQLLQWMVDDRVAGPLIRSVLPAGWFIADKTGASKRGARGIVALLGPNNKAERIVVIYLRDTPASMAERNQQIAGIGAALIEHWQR
T6 sequence (Q9F663 25-293 limits assumed): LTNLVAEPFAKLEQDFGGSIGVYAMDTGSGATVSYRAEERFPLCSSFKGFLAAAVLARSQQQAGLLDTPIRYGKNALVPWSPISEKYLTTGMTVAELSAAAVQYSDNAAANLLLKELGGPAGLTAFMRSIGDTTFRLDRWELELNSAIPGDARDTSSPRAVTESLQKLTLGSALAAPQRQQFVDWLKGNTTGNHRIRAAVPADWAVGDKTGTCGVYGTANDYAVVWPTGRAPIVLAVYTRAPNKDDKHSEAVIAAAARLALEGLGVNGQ
T1 sequence (Q9EXV5 entry or part of it): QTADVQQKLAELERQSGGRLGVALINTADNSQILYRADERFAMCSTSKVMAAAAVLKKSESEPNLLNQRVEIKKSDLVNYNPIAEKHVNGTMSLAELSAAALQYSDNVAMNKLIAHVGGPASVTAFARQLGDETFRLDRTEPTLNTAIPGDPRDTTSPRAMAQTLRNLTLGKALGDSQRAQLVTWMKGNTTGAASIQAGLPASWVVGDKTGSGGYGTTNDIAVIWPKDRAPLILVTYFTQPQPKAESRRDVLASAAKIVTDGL
T2 sequence (Q9L4P2 18-273): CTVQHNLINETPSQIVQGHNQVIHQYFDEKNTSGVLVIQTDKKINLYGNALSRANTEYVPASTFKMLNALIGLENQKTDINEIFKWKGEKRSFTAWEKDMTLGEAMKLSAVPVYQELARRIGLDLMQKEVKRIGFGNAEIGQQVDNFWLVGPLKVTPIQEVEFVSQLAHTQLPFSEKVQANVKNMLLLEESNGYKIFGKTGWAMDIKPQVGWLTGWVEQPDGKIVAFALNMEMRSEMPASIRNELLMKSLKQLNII
T5 sequence (P05364 21-381): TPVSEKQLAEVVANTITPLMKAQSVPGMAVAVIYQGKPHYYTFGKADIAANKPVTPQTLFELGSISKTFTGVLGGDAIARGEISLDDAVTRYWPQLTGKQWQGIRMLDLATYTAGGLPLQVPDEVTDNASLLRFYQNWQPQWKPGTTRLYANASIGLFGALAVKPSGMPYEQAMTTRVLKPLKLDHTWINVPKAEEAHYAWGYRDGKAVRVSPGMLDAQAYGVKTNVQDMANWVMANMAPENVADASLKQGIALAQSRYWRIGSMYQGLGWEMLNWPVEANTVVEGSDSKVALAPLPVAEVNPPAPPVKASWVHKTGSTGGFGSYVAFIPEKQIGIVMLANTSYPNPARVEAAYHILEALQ

| Compound | MIC of example compound, E. coli SHV-5 [1] [µg/mL] | MIC of example compound, E. cloacae P99+ [2] [µg/mL] | pIC50 (CTX-M15 β-lactamase) | pIC50 (OXA-23 β-lactamase) | MIC of example compound, P. aeruginosa VIM-2 [3] [µg/mL] | MIC of example compound, K. pneumoniae KPC-2 [4] [µg/mL] | pIC50 (SHV-5 β-lactamase) | pIC50 [5] | pIC50 (p99 AmpC β-lactamase; [7]) | pIC50 (KPC-2 β-lactamase) | MIC of example compound, K. pneumoniae CTX-M-15 [6] [µg/mL] | pIC50 (p99 AmpC β-lactamase) |
| --- | --- | --- | --- | --- | --- | --- | --- | --- | --- | --- | --- | --- |
| CC(=O)NCc1ccc(CC(=O)N[C@@H](Cc2cccc(C(=O)O)c2O)B(O)O)cc1 [Example 32, (1R)-[2-(4-acetylaminomethyl-phenyl)-acetylamino]-(3-carboxy-2hydroxy)benzyl-methylboronic acid] | 0.5 | >8 | 8.70 | 6.94 | >8 | 4 | 9.52 | < 6.00 | 8.70 | 8.40 | 0.5 |  |
| CNCc1ccc(CC(=O)N[C@@H](Cc2cccc(C(=O)O)c2O)B(O)O)cc1 [Example 33, (1R)-[2-(4-methylaminomethyl-phenyl)-acetylamino]-(3-carboxy-2hydroxy)benzyl-methylboronic acid formate] | 0.5 | 0.25 | 8.10 | 6.42 | >8 | 0.06 | 8.30 | 6.47 | 8.15 | 7.92 | 0.12 |  |
| O=C(Cc1ccc(CNCCO)cc1)N[C@@H](Cc1cccc(C(=O)O)c1O)B(O)O [Example 34, (1R)-[2-{4-((2-hydroxy-ethylamino)-methyl)-phenyl}-acetylamino]-(3-carboxy-2hydroxy)benzyl-methylboronic acid formate] | 0.5 | 0.5 | 8.15 | 6.59 | >8 | 0.03 | 8.30 | 6.24 | 8.40 | 7.74 | 0.12 |  |
| NCCNCc1ccc(CC(=O)N[C@@H](Cc2cccc(C(=O)O)c2O)B(O)O)cc1 [Example 35, (1R)-[2-{4-((2-amino-ethylamino)-methyl)-phenyl}-acetylamino]-(3-carboxy-2hydroxy)benzyl-methylboronic acid formate] | 0.5 | 0.25 | 8.15 | 7.01 | >8 | 0.03 | 8.70 | 6.71 | 8.30 | 7.77 | 0.25 |  |
| CN(C)Cc1ccc(CC(=O)N[C@@H](Cc2cccc(C(=O)O)c2O)B(O)O)cc1 [Example 36, (1R)-[2-(4-dimethylaminomethyl-phenyl)-acetylamino]-(3-carboxy-2hydroxy)benzyl-methylboronic acid formate] | 0.5 | 0.25 | 8.40 | 6.72 | >8 | 0.06 | 8.70 | 6.23 | 8.70 | 8.30 | 0.12 |  |
| O=C(Cc1ccc(CN2CCNCC2)cc1)N[C@@H](Cc1cccc(C(=O)O)c1O)B(O)O [Example 37, (1R)-[2-(4-piperazin-1-ylmethyl-phenyl)-acetylamino]-(3-carboxy-2hydroxy)benzyl-methylboronic acid formate] | 2 | 2 | 8.15 | 7.08 | >8 | 0.03 | 8.70 | 6.11 | 8.70 | 8.05 | 2 |  |
| O=C(Cc1ccc(CN(CCO)CCO)cc1)N[C@@H](Cc1cccc(C(=O)O)c1O)B(O)O [Example 39, (1R)-[2-(4-{[bis-(2-hydroxy-ethyl)-amino]-methyl}-phenyl)-acetylamino]-(3-carboxy-2-hydroxy)benzyl-methylboronic acid formate] | 0.5 | 2 | 8.40 | 6.78 | >8 | 0.03 | 6.01 | 6.33 | 7.92 | 7.59 | 0.5 |  |
| C[N+]1(Cc2ccc(CC(=O)N[C@@H](Cc3cccc(C(=O)O)c3O)B(O)O)cc2)CCOCC1 [Example 41, 4-(4-{[2-(3-carboxy-2-hydroxy-phenyl)-1-borono-ethylcarbamoyl]-methyl}-benzyl)-4-methyl-morpholin-4-ium formate] | 0.5 | 1 | 8.70 | 6.70 | >8 | 0.03 | 8.40 | < 6.00 |  | 8.00 | 0.25 | 7.70 |
| Cl.Nc1cncc(C(=O)N[C@@H](Cc2cccc(C(=O)O)c2O)B(O)O)c1 [Example 44, (2R)-3-{[2-(5-amino-pyridine-3-carbonyl)-amino]-2-borono-ethyl}-2-hydroxy-benzoic acid hydrochloride] | 1 | 1 | 8.70 | 6.92 | >8 | 0.015 | 7.15 | 6.16 | 9.00 | 7.52 | 0.25 |  |

Reference: patent US20100292185A1, “BETA-LACTAMASE INHIBITORS” (priority 2009, published 2010)
